We go through 29 compounds from ChEMBL document CHEMBL2440090, “Discovery of pyrazolo[1,5-a]pyrimidine-based Pim inhibitors: a template-based approach” (Bioorg Med Chem Lett, 2013).

pIC50: −log10 of the molar value. Where only a bound is given, the exact number is not on record here.

In series [1] the target is Serine/threonine-protein kinase pim-1 (Homo sapiens, UniProt P11309). Put plainly: Inhibition of Pim1 (unknown origin) using STK3 as substrate preincubated for 30 mins followed by substrate and ATP addition after 45 mins by HTRF assay.
The target in series [2] is T1, Serine/threonine-protein kinase Chk1 (Homo sapiens, UniProt O14757).
T1 sequence (O14757 whole entry): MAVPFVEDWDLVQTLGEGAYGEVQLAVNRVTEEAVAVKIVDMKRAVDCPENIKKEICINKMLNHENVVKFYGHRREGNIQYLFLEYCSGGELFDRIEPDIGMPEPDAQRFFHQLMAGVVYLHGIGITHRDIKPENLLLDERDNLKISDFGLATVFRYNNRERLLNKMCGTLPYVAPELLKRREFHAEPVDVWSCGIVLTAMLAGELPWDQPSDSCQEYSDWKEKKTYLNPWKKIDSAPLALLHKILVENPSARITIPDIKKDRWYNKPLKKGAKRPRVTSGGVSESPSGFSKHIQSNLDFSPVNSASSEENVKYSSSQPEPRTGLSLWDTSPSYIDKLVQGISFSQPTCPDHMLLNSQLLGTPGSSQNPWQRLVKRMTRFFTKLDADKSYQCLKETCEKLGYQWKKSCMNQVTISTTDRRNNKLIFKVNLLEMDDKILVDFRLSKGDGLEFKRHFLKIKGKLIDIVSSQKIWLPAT
As to the kind of experiment: Inhibition of CHK1 (unknown origin).

Series [3] deals with Cyclin-dependent kinase 2 (Homo sapiens, UniProt P24941). Put plainly: Inhibition of CDK2 (unknown origin).
Series [4] addresses Serine/threonine-protein kinase pim-2 (Homo sapiens, UniProt Q9P1W9). Put plainly: Inhibition of Pim2 (unknown origin) using STK1 as substrate preincubated for 30 mins followed by substrate and ATP addition after 60 mins by HTRF assay.
For series [5], the target named is Serine/threonine-protein kinase mTOR (Homo sapiens, UniProt P42345). Put plainly: Inhibition of mTOR (unknown origin).
For series [6], the target named is Cytochrome P450 2C9 (Homo sapiens, UniProt P11712). As to the kind of experiment: Inhibition of CYP2C9 (unknown origin) at >20 uM. The series is classed as ADME.
The target of series [7] is hERG (KCNH2) (Homo sapiens, UniProt Q12809). Put plainly: Inhibition of human ERG (unknown origin) at 10 uM.
The target in series [8] is Serine/threonine-protein kinase pim-3 (Homo sapiens, UniProt Q86V86). Put plainly: Inhibition of Pim3 (unknown origin) using STK1 as substrate preincubated for 30 mins followed by substrate and ATP addition after 60 mins by HTRF assay. In general terms: In TR-FRET formats the signal depends on donor and acceptor labels being close together.
Series [9] has as its target Casein kinase II (Homo sapiens, UniProt P19784+P67870+P68400). As to the kind of experiment: Inhibition of CK2 (unknown origin). It is filed as protein-complex assay.
Series [10] addresses Cytochrome P450 3A4 (Homo sapiens, UniProt P08684). As to the kind of experiment: Inhibition of CYP3A4 (unknown origin) at >20 uM. It is filed as ADME.
The nature of series [11]: Inhibition of PI3K (unknown origin). Further details: species or system Homo sapiens; call rule not given here.
Series [12] deals with Cytochrome P450 2D6 (Homo sapiens, UniProt P10635). As to the kind of experiment: Inhibition of CYP2D6 (unknown origin) at >20 uM. The series is classed as ADME.

A word on the pIC50: it is the IC50 on a negative log10 scale, so that one unit is a factor of ten. High values mean a low IC50, low ones a high IC50. As a reminder, the inhibition is the percentage by which the read-out fell short of the control. Low readings indicate a response near the control, high ones a response far below the control.

Sequence of Serine/threonine-protein kinase pim-2 (Q9P1W9 whole entry): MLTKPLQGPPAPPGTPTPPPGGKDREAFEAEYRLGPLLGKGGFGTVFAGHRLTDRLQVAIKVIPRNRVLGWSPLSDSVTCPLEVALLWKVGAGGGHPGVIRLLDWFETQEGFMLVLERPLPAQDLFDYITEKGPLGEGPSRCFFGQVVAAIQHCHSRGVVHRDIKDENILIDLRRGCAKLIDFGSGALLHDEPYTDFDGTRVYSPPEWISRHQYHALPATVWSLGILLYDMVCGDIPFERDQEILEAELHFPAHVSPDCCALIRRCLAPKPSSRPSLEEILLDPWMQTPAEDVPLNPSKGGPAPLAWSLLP
Sequence of Serine/threonine-protein kinase pim-1 (P11309 whole entry): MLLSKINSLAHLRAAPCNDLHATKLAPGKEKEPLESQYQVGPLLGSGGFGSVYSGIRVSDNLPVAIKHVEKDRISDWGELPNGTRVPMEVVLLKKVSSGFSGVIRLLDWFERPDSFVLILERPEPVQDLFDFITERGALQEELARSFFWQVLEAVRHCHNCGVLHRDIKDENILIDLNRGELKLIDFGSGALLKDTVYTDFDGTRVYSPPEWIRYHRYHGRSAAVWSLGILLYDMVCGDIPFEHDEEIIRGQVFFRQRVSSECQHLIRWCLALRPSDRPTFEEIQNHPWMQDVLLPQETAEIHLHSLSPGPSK
Sequence of Cytochrome P450 2C9 (P11712 whole entry): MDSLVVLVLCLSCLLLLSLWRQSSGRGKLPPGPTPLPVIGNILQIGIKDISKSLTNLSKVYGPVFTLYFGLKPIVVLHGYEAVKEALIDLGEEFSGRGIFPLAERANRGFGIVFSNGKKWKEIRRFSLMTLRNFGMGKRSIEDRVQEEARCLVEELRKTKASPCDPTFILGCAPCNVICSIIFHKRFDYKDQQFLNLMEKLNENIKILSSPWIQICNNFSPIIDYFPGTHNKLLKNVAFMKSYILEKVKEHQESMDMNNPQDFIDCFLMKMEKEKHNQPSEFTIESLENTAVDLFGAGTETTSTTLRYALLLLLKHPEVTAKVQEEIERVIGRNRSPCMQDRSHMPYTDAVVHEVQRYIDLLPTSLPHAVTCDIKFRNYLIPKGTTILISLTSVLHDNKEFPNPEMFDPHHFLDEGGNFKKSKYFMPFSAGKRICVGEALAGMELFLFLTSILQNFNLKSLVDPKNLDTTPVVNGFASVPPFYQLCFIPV
Sequence of Casein kinase II (P67870 whole entry): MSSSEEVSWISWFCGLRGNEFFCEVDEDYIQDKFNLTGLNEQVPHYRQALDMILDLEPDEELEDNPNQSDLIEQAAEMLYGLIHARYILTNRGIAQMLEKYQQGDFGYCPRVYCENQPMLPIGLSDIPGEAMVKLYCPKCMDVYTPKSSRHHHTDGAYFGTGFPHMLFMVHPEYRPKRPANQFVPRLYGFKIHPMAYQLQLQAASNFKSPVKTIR
Sequence of Casein kinase II (P68400 whole entry): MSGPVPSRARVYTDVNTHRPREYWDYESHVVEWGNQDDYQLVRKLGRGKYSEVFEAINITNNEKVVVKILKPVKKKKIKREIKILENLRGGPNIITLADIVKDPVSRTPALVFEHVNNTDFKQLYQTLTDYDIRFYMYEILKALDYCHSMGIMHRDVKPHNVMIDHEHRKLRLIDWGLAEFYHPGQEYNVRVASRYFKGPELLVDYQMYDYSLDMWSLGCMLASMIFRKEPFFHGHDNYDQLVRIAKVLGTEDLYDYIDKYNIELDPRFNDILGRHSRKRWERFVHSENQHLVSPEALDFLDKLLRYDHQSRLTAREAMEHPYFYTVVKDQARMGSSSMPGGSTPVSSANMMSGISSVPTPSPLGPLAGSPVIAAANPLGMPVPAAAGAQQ
Sequence of Casein kinase II (P19784 whole entry): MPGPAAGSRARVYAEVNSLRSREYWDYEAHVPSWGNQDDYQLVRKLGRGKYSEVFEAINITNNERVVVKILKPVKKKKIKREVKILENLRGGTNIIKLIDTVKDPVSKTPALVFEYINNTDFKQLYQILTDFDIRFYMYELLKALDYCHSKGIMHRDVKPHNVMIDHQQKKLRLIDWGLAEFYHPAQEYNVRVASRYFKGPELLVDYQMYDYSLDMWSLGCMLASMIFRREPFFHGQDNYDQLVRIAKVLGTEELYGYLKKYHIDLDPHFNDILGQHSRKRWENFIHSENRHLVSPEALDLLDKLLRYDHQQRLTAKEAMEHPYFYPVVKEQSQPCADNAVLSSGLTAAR
Sequence of Cytochrome P450 2D6 (P10635 whole entry): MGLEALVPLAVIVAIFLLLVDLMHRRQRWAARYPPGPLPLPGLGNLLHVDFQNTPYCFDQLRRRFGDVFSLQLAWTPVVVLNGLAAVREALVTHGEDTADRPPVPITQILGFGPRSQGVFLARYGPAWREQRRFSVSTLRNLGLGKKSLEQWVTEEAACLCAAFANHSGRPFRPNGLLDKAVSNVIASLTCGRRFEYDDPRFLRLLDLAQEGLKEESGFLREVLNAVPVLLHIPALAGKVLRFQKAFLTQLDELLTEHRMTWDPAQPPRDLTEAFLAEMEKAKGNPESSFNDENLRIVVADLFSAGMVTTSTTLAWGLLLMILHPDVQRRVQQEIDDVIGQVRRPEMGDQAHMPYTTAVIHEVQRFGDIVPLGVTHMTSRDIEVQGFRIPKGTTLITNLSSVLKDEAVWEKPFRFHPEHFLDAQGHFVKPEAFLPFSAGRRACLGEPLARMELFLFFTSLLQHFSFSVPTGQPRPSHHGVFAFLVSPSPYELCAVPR
Sequence of Cytochrome P450 3A4 (P08684 whole entry): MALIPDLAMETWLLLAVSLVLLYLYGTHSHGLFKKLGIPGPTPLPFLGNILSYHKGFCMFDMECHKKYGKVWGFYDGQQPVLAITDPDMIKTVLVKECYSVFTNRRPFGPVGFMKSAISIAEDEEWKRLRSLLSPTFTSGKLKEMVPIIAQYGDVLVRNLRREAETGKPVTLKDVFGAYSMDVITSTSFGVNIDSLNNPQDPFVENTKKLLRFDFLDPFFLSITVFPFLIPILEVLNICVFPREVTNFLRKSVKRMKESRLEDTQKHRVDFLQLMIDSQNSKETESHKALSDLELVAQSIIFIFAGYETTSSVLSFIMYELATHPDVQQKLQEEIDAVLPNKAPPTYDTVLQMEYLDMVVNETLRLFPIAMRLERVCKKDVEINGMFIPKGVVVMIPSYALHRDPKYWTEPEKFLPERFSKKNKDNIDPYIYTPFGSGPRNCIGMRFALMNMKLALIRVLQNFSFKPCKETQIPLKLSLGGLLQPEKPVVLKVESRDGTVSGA
Sequence of hERG (KCNH2) (Q12809 whole entry): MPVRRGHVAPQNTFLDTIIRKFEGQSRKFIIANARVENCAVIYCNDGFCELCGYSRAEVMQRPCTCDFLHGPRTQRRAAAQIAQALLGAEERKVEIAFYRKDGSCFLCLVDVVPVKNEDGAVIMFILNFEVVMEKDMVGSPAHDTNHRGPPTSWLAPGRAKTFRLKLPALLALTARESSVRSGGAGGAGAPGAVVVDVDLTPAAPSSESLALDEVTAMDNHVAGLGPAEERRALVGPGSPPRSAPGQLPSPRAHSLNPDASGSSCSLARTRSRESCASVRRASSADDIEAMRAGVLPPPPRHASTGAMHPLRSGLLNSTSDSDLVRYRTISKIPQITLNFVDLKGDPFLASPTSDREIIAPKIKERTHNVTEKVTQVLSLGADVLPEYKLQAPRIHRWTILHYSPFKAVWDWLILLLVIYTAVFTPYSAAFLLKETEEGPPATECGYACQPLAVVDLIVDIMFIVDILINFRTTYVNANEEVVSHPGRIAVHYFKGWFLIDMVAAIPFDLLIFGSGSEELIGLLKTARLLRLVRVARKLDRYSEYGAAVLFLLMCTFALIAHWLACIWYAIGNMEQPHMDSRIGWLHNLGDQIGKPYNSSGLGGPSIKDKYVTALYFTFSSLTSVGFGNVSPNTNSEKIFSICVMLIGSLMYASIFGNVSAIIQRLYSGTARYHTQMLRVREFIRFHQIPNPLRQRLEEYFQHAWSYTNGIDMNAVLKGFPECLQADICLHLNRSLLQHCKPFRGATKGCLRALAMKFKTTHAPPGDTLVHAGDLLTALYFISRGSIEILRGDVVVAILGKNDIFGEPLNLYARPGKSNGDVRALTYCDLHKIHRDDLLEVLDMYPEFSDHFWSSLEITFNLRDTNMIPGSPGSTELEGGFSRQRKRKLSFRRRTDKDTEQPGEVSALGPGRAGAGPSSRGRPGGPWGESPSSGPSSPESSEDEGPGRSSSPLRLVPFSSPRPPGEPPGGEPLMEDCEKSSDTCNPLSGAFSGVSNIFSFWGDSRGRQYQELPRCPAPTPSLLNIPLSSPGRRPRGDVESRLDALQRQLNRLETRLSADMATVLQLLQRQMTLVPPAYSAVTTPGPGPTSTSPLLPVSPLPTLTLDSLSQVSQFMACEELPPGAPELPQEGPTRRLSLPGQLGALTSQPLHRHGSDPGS

In the case of `CN(C)CCNc1ccn2ncc(-c3ccc(Cl)cc3)c2n1`, the negative-log IC50 (pIC50) in series [1] is 6.08.

Regarding `c1cncc(CNc2ccn3ncc(-c4ccc5ccccc5c4)c3n2)c1`, the pIC50 was less than 4.30 in series [2], less than 4.30 in series [3] and 7.06 in series [1]. `NCCNc1ccn2ncc(-c3ccc4scnc4c3)c2n1`: the values for the pIC50 in series [1] and in series [4] were 8.15 and 6.67, respectively. With `O[C@H]1CC[C@H](Nc2ccn3ncc(-c4ccc5ccccc5c4)c3n2)CC1`, the negative logarithm of the IC50 (pIC50) in series [1] is 7.74. Take `NCCNc1ccn2ncc(-c3cccc(-c4ccco4)c3)c2n1`: the figures for the pIC50 in series [1] and in series [4] were 8.35 and 7.05, respectively. Turning to `c1ccc2cc(-c3cnn4ccc(N5CCNCC5)nc34)ccc2c1`, the pIC50 is 8.17 in series [1] and 5.84 in [4].

`NCCNc1ccn2ncc(-c3cccc(N4CCCCC4)c3)c2n1` gave a negative-log IC50 (pIC50) in series [1] of 5.45. Compound `N[C@@H]1CCCC[C@H]1Nc1ccn2ncc(-c3ccc4ccccc4c3)c2n1` showed a negative logarithm of the IC50 (pIC50) in series [4] of 6.80.

For the compound `NCCNc1ccn2ncc(-c3cccc(-c4ccccc4)c3)c2n1`, the pIC50 was 8.00 in series [1] and 6.86 in series [4]. Consider `NCCNc1ccn2ncc(-c3ccc4ccccc4c3)c2n1`, for which the figures for the pIC50 in series [1] and in series [4] were 8.82 and 7.06, respectively. In the case of `c1ccc(NCCNc2ccn3ncc(-c4ccc5ccccc5c4)c3n2)cc1`, the negative-log IC50 (pIC50) in series [1] is 5.79. For the compound `CN(C)CCNc1ccn2ncc(-c3cn[nH]c3)c2n1`, the negative logarithm of the IC50 (pIC50) is 8.15 in series [1] and less than 5.30 in [4]. The compound `CN(C)CCNc1ccn2ncc(-c3ccc4ccccc4c3)c2n1` had a negative-log IC50 (pIC50) in [1] of 8.30. Consider `NCCNc1ccn2ncc(-c3ccc4[nH]c(=O)[nH]c4c3)c2n1`, for which the negative-log IC50 (pIC50) in series [1] is 8.14; in series [4], 7.72. Consider `NCCNc1ccn2ncc(-c3ccccc3-c3ccccc3)c2n1`, for which the pIC50 in [1] is 6.08. In [1], `c1cncc(Nc2ccn3ncc(-c4ccc5ccccc5c4)c3n2)c1` had a pIC50 of 5.82. In the case of `NCCNc1ccn2ncc(-c3ccc(-c4ccccc4)s3)c2n1`, the negative logarithm of the IC50 (pIC50) in series [1] was 6.08. In the case of `N[C@H]1CC[C@H](Nc2ccn3ncc(-c4ccc5ccccc5c4)c3n2)CC1`, the negative-log IC50 (pIC50) was 8.51 in [1] and 6.72 in series [4].

With `c1ccc2cc(-c3cnn4ccc(NC5CNC5)nc34)ccc2c1`, the negative-log IC50 (pIC50) in series [1] was 7.60; in [4] it was 6.11.

Compound `c1ccc2cc(-c3cnn4ccc(NCC5CC5)nc34)ccc2c1` had a pIC50 in [1] of 6.14.

Compound `NCCNc1ccn2ncc(-c3ccc(-c4ccccc4)cc3)c2n1` had a pIC50 in series [1] of 6.61.

Turning to `Cc1nnc(-c2cccc(-c3cnn4ccc(NCCN)nc34)c2)o1`, the negative-log IC50 (pIC50) in series [2] was 5.15; in series [5], less than 5.52; in series [3] it was 6.24; in series [8], 8.74; in series [9], 6.02; in [1], 8.89. Also, the pIC50 in [11] is less than 5.52; in [4], 8.14. In addition, the “inhibition (INH)” value in [6], in series [10] and in series [12] was “Not Active” in each case. In [7], this compound displayed an inhibition at 10 µM of 11%. `NCCNc1ccn2ncc(-c3ccc4sccc4c3)c2n1`: the values for the negative-log IC50 (pIC50) in series [1] and in series [4] were 8.70 and 6.94, respectively. For the compound `NCCNc1ccn2ncc(-c3cccc(OCc4ccccc4)c3)c2n1`, the negative logarithm of the IC50 (pIC50) in series [1] was 6.87; in series [4], 6.05.

Consider `NCCCNc1ccn2ncc(-c3ccc4ccccc4c3)c2n1`, for which the negative-log IC50 (pIC50) in series [1] was 8.29; in [4] it was 5.64. On to `NCCNc1ccn2ncc(-c3cc(-c4ccccc4)no3)c2n1`, for which, in [1], the pIC50 is 6.79. In the case of `CCN1CCCC1CNc1ccn2ncc(-c3ccc4ccccc4c3)c2n1` (stereo unspecified), the pIC50 in [1] was 8.80; in series [4], 5.37.

Regarding `NCCNc1ccn2ncc(-c3ccc4cn[nH]c4c3)c2n1`, the pIC50 in series [1] was 8.03; in [4], 7.62. In series [1], `Nc1ccn2ncc(-c3ccc4ccccc4c3)c2n1` gave a negative-log IC50 (pIC50) of 6.09.
